Patent publication US6624140B1, “Synthetic peptides with antimicrobial and endotoxin neutralizing properties for management of the sepsis syndrome” (Academisch Ziekenhuis Bij de Universiteit van Amsterdam …, priority 1997, dated 2003)
No end group written: not given here.

Assays:
[1] = system: IL-6 production by endotoxin; experiment: IL-6 production in diluted whole blood, simultaneous addition of LPS and peptide; type: cell-based, human; settings: LPS 1 ng/ml; concentrations as low as 1 μM; control even at 4-fold higher concentration; heparin 100 I.U/ml
Method: FIG. 9. Effect of simultaneous addition of E. coli 0111:B4 LPS and synthetic peptides on IL-6 production in whole blood diluted 1 in 10. Synthetic peptides BP1 or BP2 or the control peptide BPI(85-102) at the concentrations indicated, were added together with E. coli 0111:B4 LPS at 1 ng/ml to diluted whole blood containing heparin at 100 I.U/ml. IL-6 concentration was determined after incubation for 16 h at 37° C. Each value is the mean of triplicate experiments. Controls contained no added peptide.
The endotoxin neutralizing activities of the synthetic peptides of the invention were evaluated by investigating the effect on LPS-stimulated release of the pro-inflammatory cytokines, tumor necrosis factor alpha (TNF-α), interleukin-6 (IL-6) or interleukin-8 (IL-8) in a well characterized in vitro human whole blood bioassay system. In one series of experiments, dilutions of E. coli 0111:B4 LPS from 0.2 to 1 ng/ml were pre-incubated with synthetic peptides at 10 μg/ml concentrations in RPMI medium for 30 min at 20° C. and added to diluted whole blood. Cytokine concentrations in the supernatants were determined after further incubation for 16 h at 37° C. in the presence of 5% CO2 by specific and sensitive ELISA kits (CLB, Amsterdam, The Netherlands). In another series of experiments, the effects of synthetic peptides at concentrations of 2,5, 5 and 10 μg/ml on IL-6 induction by 1 ng/ml 0111:B4 LPS was examined after simultaneous addition of synthetic peptide and LPS to diluted whole blood. […] The control peptide BPI(85-102) was ineffective in reducing cytokine production under these conditions even at a 4-fold higher concentration. This probably reflects the differences in binding affinity for Lipid A of BP1 and BP2 compared with the BPI(85-102) peptide of approximately 5 and 10-fold, respectively. An additional factor which may have influenced binding of the control peptide to endotoxin is the presence of heparin employed as an anti-coagulant at a concentration of 100 I.U/ml in the assay system. […]

Staphylococcus aureus = experiment: Bactericidal activity in liquid culture, S. aureus; type: cell-based; settings: for effect on cell-density of Gram-positive bacterial cultures: in words; for % bacteria killed: 10^7 S. aureus bacteria/ml LB medium 37° C., concentration effective dose 3 (M^−6)
Method: FIGS. 1A and 1B. The effect of synthetic peptides on the survival of E. coli 0111:B4 (panel A) or S. aureus (panel B). Logarithmically growing bacterial cells at a density of 10^7 cells/ml in Luria-Bertani (LB) medium were incubated with synthetic peptides at concentrations of 3, 5 and 7 μg/ml (1, 2 and 3 μM) at 37° C. for 1 h and the residual cell density expressed as a percentage of the value obtained from bacterial cultures without added peptides.
A peptide encompassing a selected LPS-binding domain from a well characterized human antiendotoxin protein, known as bactericidal/permeability increasing protein (BPI), from amino acids 85 to 102, denoted as BPI(85-102), was included for a direct comparison of the efficacy of the endotoxin-binding domain of a naturally occurring protein and the synthetic peptides of the invention. The amino acid sequence of the BPI(85-102) peptide is:
The BPI(85-102) reference peptide was synthesized as previously described for peptides of the invention and provided with a C-terminal Cys residue for the purpose of biotinylation as previously described. […] Incubation of various concentrations of the synthetic peptides according to the invention for a limited time period on the survival of both types of bacteria again illustrated their potent anti-microbial activity as opposed to that of the BPI(85-102) peptide (FIG. 1) with the sequence corresponding to that of the potential LPS binding domain of the native BPI protein. This is indicative of a broad specificity of the synthetic peptides, in keeping with the general bactericidal properties of this class of linear amphipathic α-helical peptides. […] The B2 residue in the N-terminal repetitive sequence element in each instance, instead of an aromatic amino acid residue, as specified by the formula of the invention, was replaced with an Ala residue and the hydrophobic (C2)n element made hydrophilic by substitution with Lys and Cys residues.

[2] = Tolerability of i.p. peptide in mice; type: in vivo; settings: 2.5 and 5 mg/Kg i.p.; 2 week observation; Swiss mice

| Substance | inhibition of IL-6 production [1] | effect on cell-density of Gram-positive bacterial cultures (Staphylococcus aureus) | tolerability [2] | % bacteria killed (Staphylococcus aureus) [%] |
| --- | --- | --- | --- | --- |
| GKWKLFKKAFKKFLKILAC-OH [BP2, Gly-Lys-Trp-Lys-Leu-Phe-Lys-Lys-Ala-Phe-Lys-Lys-Phe-Leu-Lys-Ile-Leu-Ala-Cys] | completely inhibiting | dose-dependent reduction | well tolerated with no adverse effects | – |
| GRLRKKWKAFKKFLKILAC [BP1] | completely inhibiting | dose-dependent reduction | – | 34 |
| Ile-Lys-Ile-Ser-Gly-Lys-Trp-Lys-Ala-Gin-Lys-Arg-Phe-Leu-Lys-Met-Ser-Gly-(Cys) (IKISGKWKAQKRFLKMSGC; listed as Homo sapiens) [BPI(85-102), reference compound] | ineffective | no effect | – | 0 |
